“Also recorded” adds a separate entry of the source. Where two headings read alike, the source gives them in different places.

In one experiment the test system is HT29 cells. Nature of the experiment: Glutathione and reactive oxygen species in HT29 cells. The class given is cell-based, human. Conditions: 48 h. As to the method:
Glutathione levels were measured using a commercially available kit (Cayman Chemical 703002) according to the manufacturers protocol. Concurrently ROS was measured in cells using CM-H2DCFDA (Life Technologies C6827) coupled with flow cytometry in accordance with the manufacturers protocol. The assay was replicated replicated at least three times, technically and biologically. Significance was calculated using a t-test in Graphpad Prism. Error is reported as standard deviation (SD).

The test system of the next experiment is HT29 and HCT-116 cells. In words: Cell viability with or without chloroquine. The class given is cell-based, human. The conditions noted are these: 48 h. Here is the method:
(§1) Viability was evaluated using a commercially available chemiluminescent reagents (CellTiter-Glo, Promega Corp. G7572; MultiTox Glo, Promega Corp. G9270) in 96-well plate format according to the manufacturers protocol. […] Subsequently, CellTiter-Glo reagent was added and the plates were read using a plate reader (BioTek Synergy 4) with standard settings. Each set of conditions was replicated at least three times, technically and biologically. Error is reported as standard deviation (SD). The sulforhodamine B assay was run analogously to the above assays as previously described^19.

The next experiment relates to human CRC cell lines. In words: Follow-up viability screening (MultiTox Glo, sulforhodamine B). The class given is cell-based. Conditions: four human CRC cell lines; 48 hrs; MultiTox Glo. Here is the method:
as §1

In experiment [1] the test system is human CRC organoids A-007 and A-008. In words: Human CRC organoid viability assay. Type of experiment: cell-based. Conditions: V-9302 25 μM or CB-839 35 μM, 96 h. Here is the method:
Human CRC-derived organoids were prepared as reported method with modification^41. Briefly, specimens from freshly resected tumors were minced and digested with 2 mg/ml type 2 collagenase (Worthington, N.J., USA). Samples were passed through 40 µm filters (Greiner Bio One, NC, USA) and epithelial cells trapped on the filters were embed in Matrigel (Corning, MA, USA) and cultured with advanced DMEM/F12 supplemented with N2 and B27 supplements (Thermo Fischer, MA, USA), 50 ng/ml rhEGF (R&D systems, MN, USA) and 1% antibiotic-antimycotic (Corning). For viability assay, organoids were dissociated by TrypLE express (Thermo Fischer) and suspended in Matrigel. […] After 4 days of culture, images of the organoids in Matrigel were captured and the number of viable cells were quantified with CellTiter Aqueous One Cell Proliferation Assay kit (Promega, WI, USA) and a Synergy 4 plate reader (BioTek, VT, USA). The assay was replicated at least three times, technically and biologically. Significance was calculated using a t-test in Graphpad Prism. Error is reported as standard deviation (SD).

The next experiment deals with HCC1806 and HT29 cells. Nature of the experiment: Autophagic flux (CYTO-ID). The class given is cell-based, human. The conditions noted are these: single agent. Here is the method:
Autophagic flux was measure using the CYTO-ID autophagy detection kit (Enzo Life Sciences ENZ-51031). HCC1806 and HT29 cells were seeded in 96 well plates the day before the experiment. […] Following treatment, cells were gently washed with assay buffer followed by addition of the dual color detection solution and incubation at 37° C. for 30 min. The plate was analyzed on a fluorescence microplane reader (BioTek Synergy 4).

Experiment [2] concerns pERK in HCC1806 and HT29 cells. In words: AlphaScreen SureFire pERK assay. The class given is cell-based, human. Conditions: 48 h. Here is the method: Detection of activated ERK in cell lysates was enabled by the AlphaScreen SureFire ERK assay (Perkin Elmer) according to the manufacturers protocol. Cells were plated in 96-well plates for 24 hours prior to the assay.
The target of experiment [3] is ASCT2 (Homo sapiens (Human), UniProt Q15758). In words: Inhibition of ASCT2-mediated 3H-glutamine uptake in live HEK293 (human) cells. The class given is cell-based.
Sequence of ASCT2 (Homo sapiens (Human), UniProt Q15758) (Q15758 whole entry): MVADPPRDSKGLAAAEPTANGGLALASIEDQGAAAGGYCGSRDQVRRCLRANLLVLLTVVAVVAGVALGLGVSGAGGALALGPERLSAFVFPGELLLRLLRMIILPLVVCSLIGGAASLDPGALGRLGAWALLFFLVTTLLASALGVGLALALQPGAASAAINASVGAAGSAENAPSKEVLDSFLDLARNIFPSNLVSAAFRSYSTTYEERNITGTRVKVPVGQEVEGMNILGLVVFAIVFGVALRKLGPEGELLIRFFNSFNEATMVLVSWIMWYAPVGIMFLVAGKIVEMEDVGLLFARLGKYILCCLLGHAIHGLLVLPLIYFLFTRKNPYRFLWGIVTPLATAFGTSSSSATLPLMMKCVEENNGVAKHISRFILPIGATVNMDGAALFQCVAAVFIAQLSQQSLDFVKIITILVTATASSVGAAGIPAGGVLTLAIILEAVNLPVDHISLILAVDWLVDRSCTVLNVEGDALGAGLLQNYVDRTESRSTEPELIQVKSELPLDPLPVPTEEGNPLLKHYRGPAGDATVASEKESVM
Procedure: Live-cell amino acid uptake assays using HEK293 cells were carried out in 96-well plates (CulturPlate-96, Perkin Elmer). 96-well plates were coated with poly-D-lysine prior to the assay. Cells were plated at a density of 35,000 cells per well 24 h prior to carrying out the assay. Each set of conditions was replicated at least three times, technically and biologically. […] For ASCT2-mediated ^3H-glutamine uptake assays, 5 mM of the system-L inhibitor 2-amino-2-norbornanecarboxylic acid (BCH) was added and the assay buffer was adjusted to pH 6.0. For selectivity studies, no BCH was added and the assay was conducted at pH 7.4. Following the incubation period, the ^3H-glutamine/inhibitor was removed and the cells were washed three times with assay buffer. The cells were then lysed by the addition of 50 μL of 1 M NaOH. For reading, 150 μL of scintillation fluid (Microscint 40, Perkin Elmer) was added and the plates were counted on a scintillation counter (Topcount, Perkin Elmer). Fifty percent inhibitory concentrations (IC50) were calculated using GraphPad Prism version 6 for Mac OS X, GraphPad Software, San Diego Calif. […] Error is reported as standard deviation (SD).
The target of experiment [4] is ASCT2 (Rattus norvegicus (Rat), UniProt D3ZJ25). Nature of the experiment: Inhibition of ASCT2-mediated glutamine uptake in C6 (rat) cells. Conditions: for IC50: C6 (rat) cells, glutamine uptake, mean of at least 3 biological replicates; for preference for blocking glutamine transport in rat vs human cell line: C6 (rat) vs HEK293 (human). The class given is cell-based.
Sequence of ASCT2 (Rattus norvegicus (Rat), UniProt D3ZJ25) (D3ZJ25 whole entry): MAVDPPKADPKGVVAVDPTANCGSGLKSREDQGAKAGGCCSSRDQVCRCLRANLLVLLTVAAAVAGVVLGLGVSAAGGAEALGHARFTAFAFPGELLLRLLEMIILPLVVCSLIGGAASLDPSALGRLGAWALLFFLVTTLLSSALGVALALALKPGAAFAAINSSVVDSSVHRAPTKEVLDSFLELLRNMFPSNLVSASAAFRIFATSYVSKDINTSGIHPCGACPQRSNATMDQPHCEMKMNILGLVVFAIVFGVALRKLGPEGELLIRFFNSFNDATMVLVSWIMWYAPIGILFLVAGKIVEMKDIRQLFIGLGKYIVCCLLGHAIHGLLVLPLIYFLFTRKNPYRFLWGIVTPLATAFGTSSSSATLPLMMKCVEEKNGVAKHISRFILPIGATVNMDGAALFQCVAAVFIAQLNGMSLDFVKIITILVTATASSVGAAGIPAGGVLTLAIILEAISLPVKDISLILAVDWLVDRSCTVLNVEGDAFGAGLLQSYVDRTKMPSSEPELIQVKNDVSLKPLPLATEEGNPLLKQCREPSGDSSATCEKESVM

Experiment [5] relates to ASCT2. The conditions noted are these: cited from earlier work.
Another experiment has as its system HCC1806 cells. Nature of the experiment: Cell viability in HCC1806 cells. The class given is cell-based. Conditions: Homo sapiens, exposure 48 hrs.
Setting [6] is: HEK293 (human) cells, glutamine uptake, mean of at least 3 biological replicates, read-out: IC50 (human).

`O=C(Cc1cccc(OC(F)(F)F)c1)Nc1ccc(CCCCc2nnc(NC(=O)Cc3ccccn3)s2)nn1` [CB-839, reference compound]: the “GSSG levels and ROS” value in the experiment with HT29 cells is reported as “not observed”. In addition, in the experiment with HT29 and HCT-116 cells, the “cell viability, single agent” value is “did not decrease cell viability”. Also, the “EC50, cellular viability” value in the experiment with human CRC cell lines was “did not exhibit appreciable activity”. The organoid viability entry in experiment [1] is recorded as “not significantly affected”. In addition, the autophagic flux result with HCC1806 and HT29 cells is listed as “did not lead to elevated autophagic flux”. Further, in experiment [2], the “pERK (independent biochemical assay)” value is given as “not observed”.
As to `COc1cccc(Oc2ccccc2CN(CC[C@@H](N)C(=O)O)Cc2ccccc2Oc2ccccc2OC)c1` [Compound 5], the IC50 on ASCT2 [3] (setting [6]) amounted to 57.2 µM. For the same compound, on ASCT2 [4], inhibition was half-maximal at 1.3 µM (IC50) and the “preference for blocking glutamine transport in rat vs human cell line” value (from here on “preference … vs human cell line”) is given as “exhibited this preference”.
For the compound `COc1ccc(Oc2ccccc2CN(CC[C@@H](N)C(=O)O)Cc2ccccc2Oc2ccc(OC)cc2)cc1` [Compound 6], the IC50 at ASCT2 [3] (setting [6]) is 11.9 µM. For the same compound, at ASCT2 [4], the midpoint of inhibition, the IC50, lay at 8.7 µM and the “preference … vs human cell line” value is “roughly equal potencies in both cells lines”.
Turning to `N[C@H](CCN(Cc1ccccc1Oc1cccc(Cl)c1)Cc1ccccc1Oc1cccc(Cl)c1)C(=O)O` [Compound 7], the concentration for half-maximal inhibition (IC50) on ASCT2 [3] (setting [6]) amounted to 26 µM.
`N[C@H](CCN(Cc1ccccc1Oc1ccccc1F)Cc1ccccc1Oc1ccccc1F)C(=O)O` [Compound 8]: the IC50 at ASCT2 [3] (setting [6]) worked out at 33.8 µM. Besides, on ASCT2 [4], the IC50 is 1.8 µM and the “preference … vs human cell line” value is listed as “some preference for blocking glutamine transport in the rat cell line”.
The compound `N[C@H](CCN(Cc1ccccc1Oc1cccc(F)c1)Cc1ccccc1Oc1cccc(F)c1)C(=O)O` [Compound 9] had an IC50 against ASCT2 [4] of 36.3 µM.
In the case of `Cc1ccc(Oc2ccccc2CN(CC[C@@H](N)C(=O)O)Cc2ccccc2Oc2ccc(F)cc2)cc1` [Compound 10], the IC50 at ASCT2 [3] (setting [6]) is 142 µM. Further, on ASCT2 [4], the IC50 is 10.5 µM and the “preference … vs human cell line” value is “some preference for blocking glutamine transport in the rat cell line”.
The matching figures for `N[C@H](CCN(Cc1ccccc1Oc1ccccn1)Cc1ccccc1Oc1ccccn1)C(=O)O` [Compound 11]: 59.6 µM, 68.2 µM and “roughly equal potencies in both cells lines”.
Take `COc1cccc(COc2ccccc2CN(CC[C@@H](N)C(=O)O)Cc2ccccc2OCc2cccc(OC)c2)c1` [Compound 12]: the IC50 on ASCT2 [3] (setting [6]) worked out at 7.2 µM; on ASCT2 [4], 5.1 µM.
For the compound `N[C@H](CCN(Cc1ccccc1OCc1ccccc1Cl)Cc1ccccc1OCc1ccccc1Cl)C(=O)O` [Compound 13], the IC50 was determined as 40.1 µM on ASCT2 [3] (setting [6]) and 18.4 µM against ASCT2 [4].
Take `N[C@H](CCN(Cc1ccccc1OCc1cccc(O)c1)Cc1ccccc1OCc1cccc(Cl)c1)C(=O)O` [Compound 14]: the figures for the half-inhibitory concentration (IC50) at ASCT2 [3] (setting [6]) and against ASCT2 [4] were 50.8 µM and 12.7 µM, respectively.
Consider `N[C@H](CCN(Cc1ccccc1OCc1ccc(Cl)cc1)Cc1ccccc1OCc1ccc(Cl)cc1)C(=O)O` [Compound 15], for which the values for the IC50 at ASCT2 [3] (setting [6]) and on ASCT2 [4] were 33.7 µM and 20.1 µM, respectively.
As for `Cc1ccccc1COc1ccccc1CN(CC[C@@H](N)C(=O)O)Cc1ccccc1OCc1ccccc1C` [Compound 16], the figures for the IC50 on ASCT2 [3] (setting [6]) and against ASCT2 [4] were 25.6 µM and 41.7 µM, respectively.
Consider `Cc1cccc(COc2ccccc2CN(CC[C@@H](N)C(=O)O)Cc2ccccc2OCc2cccc(C)c2)c1` [Compound 17], for which the IC50 against ASCT2 [4] was 9 µM.
Turning to `Cc1ccc(COc2ccccc2CN(CC[C@@H](N)C(=O)O)Cc2ccccc2OCc2ccc(C)cc2)cc1` [Compound 18], the IC50 on ASCT2 [3] (setting [6]) was determined as 17.5 µM. Also, at ASCT2 [4], the IC50 stood at 86.4 µM and the “preference … vs human cell line” value is listed as “significant preference for inhibiting glutamine uptake in the human form of ASCT2”.
`N[C@H](CCN(Cc1ccccc1OCc1ccccc1F)Cc1ccccc1OCc1ccccc1F)C(=O)O` [Compound 19] had an IC50 against ASCT2 [4] of 3.3 µM.
In turn, `N[C@H](CCN(Cc1ccccc1OCc1ccc(F)cc1)Cc1ccccc1OCc1ccc(F)cc1)C(=O)O` [Compound 20] yielded an IC50 against ASCT2 [4] of 11.2 µM.
As for `N[C@H](CCN(Cc1ccccc1OCc1ccccn1)Cc1ccccc1OCc1ccccn1)C(=O)O` [Compound 21], the half-inhibitory concentration (IC50) at ASCT2 [3] (setting [6]) came to 48.3 µM; on ASCT2 [4], 8.4 µM.
Take `N[C@H](CCN(Cc1ccccc1OCc1cccnc1)Cc1ccccc1OCc1cccnc1)C(=O)O` [Compound 22]: the IC50 turned out to be 89.1 µM on ASCT2 [3] (setting [6]) and 17.3 µM against ASCT2 [4].
`N[C@@H](CCC(=O)Nc1ccc([N+](=O)[O-])cc1)C(=O)O` [GPNA, L-γ-glutamyl-p-nitroanilide]: the IC50 at ASCT2 [3] (live HEK-293 cells, read-out: IC50, inhibition of ASCT2-mediated glutamine uptake in human cells) worked out at 1000 µM. Further, the “potency as ASCT2 inhibitor (previously reported)” value in the experiment with ASCT2 [5] is “poor potency and selectivity in human cells; also recorded: modest potency in the low millimolar range”.
Regarding `NC(=O)CC[C@H](Nc1ccccc1CN1CCOCC1)C(=O)O` [N-(2-(morpholinomethyl)phenyl)-L-glutamine], the “activity against ASCT2 compared to GPNA (previously described)” value in the experiment with ASCT2 [5] is on record as “three-fold improved activity”.
Turning to `N[C@@H](COC(=O)c1ccc(-c2ccccc2)cc1)C(=O)O` [O-(4-phenylbenzoyl)-L-serine], the Ki on ASCT2 [5] (Albers et al., read-out: apparent affinity) is 30 µM.
In the case of `Cc1cccc(COc2ccccc2CN(Cc2ccccc2OCc2cccc(C)c2)C2CCN[C@H](C(=O)O)C2)c1` (stereo partly drawn) [WJB-A-110, (2S)-4-(Bis(2-((3-methylbenzyl)oxy)benzyl)amino)piperidine-2-carboxylic Acid], the concentration for half-maximal inhibition (IC50) with HCC1806 cells was 32 µM.
Take `Cc1cccc(COc2ccccc2CN(Cc2ccccc2OCc2cccc(C)c2)C2CN[C@H](C(=O)O)C2)c1` (stereo partly drawn) [WJB-A-119, (2S)-4-(Bis(2-((3-methylbenzyl)oxy)benzyl)amino)pyrrolidine-2-carboxylic Acid]: the IC50 in the experiment with HCC1806 cells was 23 µM.

One may read the IC50 as the concentration needed to halve the response being measured.

Source of the values: patent US10793514B2, “Glutamine transport inhibitors and methods for treating cancer” (Vanderbilt University, priority 2016, dated 2020).
